From US7858640B2, “Quinolines and their therapeutic use” (Pulmagen Therapeutics (Asthma) Limited, priority 2005, dated 2010) come the findings set out here.

Test [1] has as its target T1, CRTH2 receptor (Homo sapiens, UniProt Q9Y5Y4).
T1 sequence (Q9Y5Y4 1-395): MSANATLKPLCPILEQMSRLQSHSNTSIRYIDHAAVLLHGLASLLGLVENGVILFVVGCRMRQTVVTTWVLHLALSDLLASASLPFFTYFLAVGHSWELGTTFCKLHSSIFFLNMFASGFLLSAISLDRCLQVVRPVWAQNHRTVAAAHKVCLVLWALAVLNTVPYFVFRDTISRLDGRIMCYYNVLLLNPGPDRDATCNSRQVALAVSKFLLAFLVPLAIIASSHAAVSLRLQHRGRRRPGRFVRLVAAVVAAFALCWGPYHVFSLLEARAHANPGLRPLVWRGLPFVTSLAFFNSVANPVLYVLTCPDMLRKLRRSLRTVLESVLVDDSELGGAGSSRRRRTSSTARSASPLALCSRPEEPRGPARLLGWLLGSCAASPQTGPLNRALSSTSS
The experiment in a line: Radioligand binding assay ([3H]-PGD2 displacement, SPA). More on the design: expressed in transfected cells; host or cells: HEK cell membranes. Conditions: HEK cell membranes expressing the CRTH2 receptor, 1 nM [3H]-PGD2; Ki from IC50 by Cheng-Prusoff. How it is done: Radioligand Binding Assay
The receptor binding assay is performed in a final volume of 200 μL binding buffer [10 mM BES (pH 7.4), 1 mM EDTA, 10 mM manganese chloride, 0.01% BSA] and 1 nM [^3H]-PGD2 (Amersham Biosciences UK Ltd). Ligands are added in assay buffer containing a constant amount of DMSO (1% by volume). Total binding is determined using 1% by volume of DMSO in assay buffer and non-specific binding is determined using 10 μM of unlabeled PGD2 (Sigma). Human embryonic kidney (HEK) cell membranes (3.5 μg) expressing the CRTH2 receptor are incubated with 1.5 mg wheatgerm agglutinin SPA beads and 1 nM [^3H]-PGD2 (Amersham Biosciences UK Ltd) and the mixture incubated for 3 hours at room temperature. Bound [^3H]-PGD2 is detected using a Microbeta TRILUX liquid scintillation counter (Perkin Elmer). Compound IC50 value is determined using a 6-point dose response curve in duplicate with a semi-log compound dilution series. IC50 calculations are performed using Excel and XLfit (Microsoft), and this value is used to determine a Ki value for the test compound using the Cheng-Prusoff equation.

The target of test [2] is T1, CRTH2 receptor. The experiment in a line: Functional assay: calcium mobilisation. The class given is cell-based. Further details: expressed in transfected cells. Conditions: CHO-K1 cells co-expressing CRTH2 receptor and Gα16; antagonism of PGD2 at its EC80. How it is done: Functional Assay: Calcium Mobilisation
Stable CHO-K1 cells co-expressing the CRTH2 receptor and the G-protein Gα16 are seeded (40,000 cells per well in a plating volume of 75 μL in F-12 Hams supplemented with 1% foetal bovine serum) into collagen-coated 96-well, plates 24 hours prior to the assay. The cells are then loaded with a fluorescence-imaging plate reader (FLIPR) calcium kit dye (Calcium 3 kit, Molecular Devices Ltd) containing 5 mM final concentration of probenecid and incubated at 37° C. for 1 hour in a 5% CO2 atmosphere. The fluorescence emission caused by intracellular calcium mobilization elicited by the PGD2 at the CRTH2 receptor is determined with a FLEXstation benchtop scanning and integrated fluid transfer workstation (Molecular Devices Ltd). To detect antagonists and determine compound IC50, compounds are pre-incubated at varying concentrations with the loaded cells for 15 minutes at 37° C., 5% CO2, prior to the addition of the agonist at its EC80 value. Compounds and agonist are added in Hanks balanced salt solution containing 20 mM HEPES and 0.1% BSA). The fractional response values for each well are calculated by subtracting the basal response from the peak response. Results are calculated as the mean of triplicate wells using Excel and XLfit (Microsoft).
Background: A change in cytosolic calcium serves as a functional read-out for many receptors and channels.

The structures appear in SMILES notation. Where only a bound is given, the exact number is not on record here.

What is called Ki is the equilibrium dissociation constant of an inhibitor or competing ligand from its target. The low end stands for a stronger hold on the target, the high end for a looser hold on the target. As a reminder, the IC50 is the midpoint of a concentration-inhibition curve. The compound `Cc1nc2c(Cl)ccc(CC(=O)O)c2c(C)c1Sc1ccc(Cl)cc1` [Example 12, [8-chloro-3-(4-chlorophenylsulfanyl)-2,4-dimethylquinolin-5-yl]acetic Acid] returned a Ki in test [1] of under 100 nM. The concentration for half-maximal inhibition (IC50) in test [2] was under 100 nM. `Cc1nc2c(Cl)ccc(OCC(=O)O)c2c(OC(F)F)c1Cc1ccc(F)cc1` [Example 18, [8-chloro-4-difluoromethoxy-3-(4-fluorobenzyl)-2-methylquinolin-5-yloxy]acetic acid] yielded a Ki in test [1] of under 100 nM. Also, in test [2], the IC50 is under 100 nM. Consider `Cc1nc2c(Cl)ccc(OCC(=O)O)c2c(C)c1Cc1ccc(S(C)(=O)=O)cc1` [Example 20, [8-chloro-3-(4-methanesulfonylbenzyl)-2,4-dimethylquinolin-5-yloxy]acetic Acid], for which the inhibition constant Ki in test [1] is under 100 nM. For the same compound, the IC50 in test [2] is under 1000 nM. `Cc1nc2c(Cl)ccc(-c3nnn[nH]3)c2c(C)c1Cc1ccc(Cl)cc1` [Example 42, 8-chloro-3-(4-chlorobenzyl)-2,4-dimethyl-5-(1H-tetrazol-5-yl)quinoline]: the Ki in test [1] was under 10000 nM. The concentration for half-maximal inhibition (IC50) in test [2] was under 1000 nM. As to `Cc1c(Cc2ccc(Cl)cc2Cl)c(OC(F)F)nc2c(F)ccc(O[C@H](C)C(=O)O)c12` [Example 70, (R)-2-[3-(2,4-dichlorobenzyl)-2-difluoromethoxy-8-fluoro-4-methylquinolin-5-yloxy]propionic Acid], in test [1], the Ki was under 100 nM. As for `CCc1nc2c(Cl)ccc(OCC(=O)O)c2c(OC(F)F)c1Cc1ccc(C(=O)N2CCCC2)cc1` [Example 71, {8-chloro-4-difluoromethoxy-2-ethyl-3-[4-(pyrrolidine-1-carbonyl)benzyl]quinolin-5-yloxy}acetic Acid], the Ki in test [1] is under 100 nM. In test [1], `CCc1nc2c(F)ccc(OCC(=O)O)c2c(OC(F)F)c1Cc1ccc(C(=O)N2CCCC2)cc1Cl` [Example 72, {3-[2-chloro-4-(pyrrolidine-1-carbonyl)benzyl]-4-difluoromethoxy-2-ethyl-8-fluoroquinolin-5-yloxy}acetic Acid] came in with a Ki of under 100 nM. Still for that read-out and setting: next, `CCc1nc2c(F)ccc(O[C@@H](C)C(=O)O)c2c(OC(F)F)c1Cc1ccc(C(=O)N2CCCC2)cc1Cl` [Example 73, (S)-2-{3-[2-chloro-4-(pyrrolidine-1-carbonyl)benzyl]-4-difluoromethoxy-2-ethyl-8-fluoroquinolin-5-yloxy}propionic Acid]: under 100 nM. In turn, `CCc1nc2c(F)ccc(O[C@@H](C)C(=O)O)c2c(OC(F)F)c1Cc1ccc(Cl)cc1Cl` [Example 74, (S)-2-[3-(2,4-dichlorobenzyl)-4-difluoromethoxy-2-ethyl-8-fluoroquinolin-5-yloxy]propionic Acid] returned a Ki in test [1] of under 100 nM. Same read-out and setting: then `CCc1nc2c(F)ccc(O[C@@H](C)C(=O)O)c2c(OC)c1Cc1ccc(Cl)cc1Cl` [Example 75, (S)-2-[3-(2,4-dichlorobenzyl)-2-ethyl-8-fluoro-4-methoxyquinolin-5-yloxy]propionic Acid], with under 100 nM; and `CCc1nc2c(F)ccc(OCC(=O)O)c2c(OC(F)F)c1Cc1ccc(C(=O)NC2CCC2)cc1Cl` [Example 76, [3-(2-chloro-4-cyclobutylcarbamoylbenzyl)-4-difluoromethoxy-2-ethyl-8-fluoroquinolin-5-yloxy]acetic Acid], with under 100 nM; and `CCc1nc2c(F)ccc(O[C@@H](C)C(=O)O)c2c(OC(F)F)c1Cc1ccc(C(=O)NC2CCC2)cc1Cl` [Example 77, (S)-2-[3-(2-chloro-4-cyclobutylcarbamoylbenzyl)-4-difluoromethoxy-2-ethyl-8-fluoroquinolin-5-yloxy]propionic acid], with under 100 nM. Regarding `Cc1cc(OCC(=O)O)c2c(C)c(Cc3ccc(Cl)cc3)cnc2c1` [Example 78, [3-(4-chlorobenzyl)-4,7-dimethylquinolin-5-yloxy]acetic Acid], the Ki in test [1] is under 10000 nM.

Take `Cc1nc2cccc(OCC(=O)O)c2cc1Cc1ccc(Cl)cc1` [Example 79, [3-(4-chlorobenzyl)-2-methylquinolin-5-yloxy]acetic Acid]: the inhibition constant (Ki) in test [1] is under 10000 nM.
